# Read-outs that look alike come from different tables or passages of the source.
# Assays:
# [1] = system: KM12 cells; assay: KM12 cell viability (CellTiter-Glo); type: cell-based; conditions: for IC50: Homo sapiens, 72 h, KM12 cell viability, CellTiter-Glo, read-out: IC50
# Procedure, shortened: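 KM12 cells seeded at 5000 per well in RPMI 1640 + 10% FBS and exposed 3 days to serial dilutions (11-point 3-fold, 8-point 3-fold from 1000 nM, or 12-point 2-fold). Viability by CellTiter-Glo; IC50 from least-squares nonlinear regression.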
# [2] = molecular target: T1, TPM3-TRKA fusion protein (Homo sapiens, UniProt P04629); assay: TPM3-TRKA fusion protein levels in KM12 cells (Western blot); type: cell-based; conditions: for percent degradation of TPM3-TRKA protein at 0.01 µM: 16 h, read-out: Degradation (at 10 nM)
# T1 construct: The resulted chimeric proteins always retain the kinase domain of TRK proteins; TPM3 (fusion partner, N-terminal part of tropomyosin alpha-3, P06753); endogenous in cells; host or cells: KM12 colon cancer cells; the other entry of the earlier key: TPM3 (P06753, Tropomyosin alpha-3 chain)
# Procedure, shortened: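 KM12 colon cancer cells were treated with DMSO or compounds at 0.1–100 nM, 0.4–30 nM or other stated concentrations for 4, 8–16 or 16 h. RIPA lysates were BCA-normalized and resolved by SDS-PAGE. TPM3-TRKA was detected by chemiluminescent Western blot, with bands quantified by densitometry.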
# [3] = TPM3-TRKA degradation in KM12 cells at 10 nM compound, category of percentage degradation
# [4] = 500 nM, 12-point 2-fold serial dilution, 3 days (FIG. 4A)
# [5] = 11-point 3-fold serial dilution, 3 days
# [6] = TPM3-TRKA degradation in KM12 cells at 10 nM
# T1 sequence (P04629 with tags, fused parts or gaps): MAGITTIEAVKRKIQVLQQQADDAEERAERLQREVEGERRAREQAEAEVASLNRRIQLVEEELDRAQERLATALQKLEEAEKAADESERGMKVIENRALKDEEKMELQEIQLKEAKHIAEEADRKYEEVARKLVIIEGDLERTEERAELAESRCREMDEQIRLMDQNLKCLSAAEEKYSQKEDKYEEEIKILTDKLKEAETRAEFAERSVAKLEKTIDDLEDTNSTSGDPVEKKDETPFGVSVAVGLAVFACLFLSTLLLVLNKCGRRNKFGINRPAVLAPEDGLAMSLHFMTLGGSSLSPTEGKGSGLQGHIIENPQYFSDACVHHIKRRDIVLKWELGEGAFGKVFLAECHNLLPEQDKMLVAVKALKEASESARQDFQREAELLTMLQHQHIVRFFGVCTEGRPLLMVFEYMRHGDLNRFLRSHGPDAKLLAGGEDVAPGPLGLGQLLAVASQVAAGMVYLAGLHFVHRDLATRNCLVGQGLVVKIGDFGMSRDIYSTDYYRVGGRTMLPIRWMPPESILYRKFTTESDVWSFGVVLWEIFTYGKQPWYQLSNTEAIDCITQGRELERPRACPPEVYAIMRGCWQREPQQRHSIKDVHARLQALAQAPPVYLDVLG
compound,measurement,setting,value
"O=C1CCC(N2C[C@H](c3ccc(C#CCN4CCN(c5cccc(-c6cnc7ccc(N8CCCC8c8cccc(F)c8)nn67)n5)CC4)cc3)OC2=O)C(=O)N1 (stereo in doubt) [TR-224, 3-((S)-5-(4-(3-(4-(6-(6-((S)-2-(3-fluorophenyl)pyrrolidin-1-yl)imidazo[1,2-b]pyridazin-3-yl)pyridin-2-yl)piperazin-1-yl)prop-1-yn-1-yl)phenyl)-2-oxooxazolidin-3-yl)piperidine-2,6-dione]",IC50,[1]; three days treatment,8.7 nM
same,percent degradation of TPM3-TRKA protein at 0.01 µM,[2]; [3],> 80%
"O=C1CCC(N2C(=O)c3cccc(NCCOCCOCCOCCC(=O)N4CCN(c5cccc(-c6cnc7ccc(N8CCC[C@@H]8c8cccc(F)c8)nn67)n5)CC4)c3C2=O)C(=O)N1 (stereo partly drawn) [CPD-010, 2-(2,6-Dioxopiperidin-3-yl)-4-((2-(2-(2-(3-(4-(6-(6-((R)-2˜ (3-fluorophenyl)pyrrolidin-1-yl)imidazo[1,2-b]pyridazin-3-yl)pyridin-2-yl)piperazin-1-yl)-3-oxopropoxy)ethoxy)ethoxy)ethyl)amino) isoindoline-1,3-dione]",viability of KM12 cells,[1]; [4],inhibited the viability of KM12 cells
same,percent degradation of TPM3-TRKA protein at 0.01 µM,[2]; [3],50 to 80%
"O=C1CCC(N2C(=O)c3cccc(NCCCC(=O)N4CCN(c5ccc(C(=O)Nc6n[nH]c7ccc(Cc8cc(F)cc(F)c8)cc67)c(NC6CCOCC6)c5)CC4)c3C2=O)C(=O)N1 (stereo not drawn) [CPD-053, N-(5-(3,5-Difluorobenzyl)-1H-indazol-3-yl)-4-(4-(4-((2-(2,6-dioxopiperidin-3-yl)-1,3-dioxoisoindolin-4-yl)amino)butanoyl)piperazin-1-yl)-2-((tetrahydro-2H-pyran-4-yl)amino)benzamide]",viability of KM12 cells,[1]; [4],inhibited the viability of KM12 cells
same,viability of KM12 cells,"[1]; 1000 nM, 8-point 3-fold serial dilution, 3 days (FIG. 4B)",significantly inhibited the viability of KM12 cells
same,IC50,[1]; three days treatment,1.5 nM
same,percent degradation of TPM3-TRKA protein at 0.01 µM,[2]; [3],> 80%
same,TPM3-TRKA protein levels,"[2]; KM12 cells, 100 nM, indicated incubation time, Western blot (FIG. 2)",rapidly reduced TPM3-TRKA protein levels
"O=C1CCC(N2C(=O)c3cccc(NCCOCCOCCOCCC(=O)N4CCN(c5ccc(C(=O)Nc6n[nH]c7ccc(Cc8cc(F)cc(F)c8)cc67)c(NC6CCOCC6)c5)CC4)c3C2=O)C(=O)N1 (stereo not drawn) [CPD-057, N—(S-(3,5-Difluorobenzyl)-1H-indazol-3-yl)-4-(4-(3-(2-(2-(2-((2-(2,6-dioxopiperidin-3-yl)-1,3-dioxoisoindolin-4-yl)amino)ethoxy)ethoxy)ethoxy)propanoyl)piperazin-1-yl)-2-((tetrahydro-2H-pyran-4-yl)amino)benzamide]",viability of KM12 cells,[1]; [4],inhibited the viability of KM12 cells
same,percent degradation of TPM3-TRKA protein at 0.01 µM,[2]; [3],> 80%
"O=C1CCC(N2C(=O)c3ccc(NCCCC(=O)N4CCC(Nc5cccc(C(=O)Nc6cnn7ccc(N8CCC[C@@H]8c8cc(F)ccc8F)nc67)n5)CC4)cc3C2=O)C(=O)N1 (stereo partly drawn) [CPD-470, N-(5-((R)-2-(2,5-difluorophenyl)pyrrolidin-1-yl)pyrazolo[1,5-a]pyrimidin-3-yl)-6-((1-(4-((2-(2,6-dioxopiperidin-3-yl)-1,3-dioxoisoindolin-5-yl)amino)butanoyl)piperidin-4-yl)amino)picolinamide]",IC50,[1]; [5],21 nM
same,percent degradation of TPM3-TRKA protein at 0.01 µM,[2]; [6],> 80%
"O=C1CCC(N2C(=O)c3ccc(NCCCCCC(=O)N4CCC(Nc5cccc(C(=O)Nc6cnn7ccc(N8CCC[C@@H]8c8cc(F)ccc8F)nc67)n5)CC4)cc3C2=O)C(=O)N1 (stereo partly drawn) [CPD-471, N-(5-((R)-2-(2,5-difluorophenyl)pyrrolidin-1-yl)pyrazolo[1,5-a]pyrimidin-3-yl)-6-((1-(6-((2-(2,6-dioxopiperidin-3-yl)-1,3-dioxoisoindolin-5-yl)amino)hexanoyl)piperidin-4-yl)amino)picolinamide]",IC50,[1]; [5],19 nM
same,percent degradation of TPM3-TRKA protein at 0.01 µM,[2]; [6],> 80%
"O=C1CCC(N2C(=O)c3ccc(NCCCCCCCC(=O)N4CCC(Nc5cccc(C(=O)Nc6cnn7ccc(N8CCC[C@@H]8c8cc(F)ccc8F)nc67)n5)CC4)cc3C2=O)C(=O)N1 (stereo partly drawn) [CPD-472, N-(5-((R)-2-(2,5-difluorophenyl)pyrrolidin-1-yl)pyrazolo[1,5-a]pyrimidin-3-yl)-6-((1-(8-((2-(2,6-dioxopiperidin-3-yl)-1,3-dioxoisoindolin-5-yl)amino)octanoyl)piperidin-4-yl)amino)picolinamide]",IC50,[1]; [5],37 nM
same,percent degradation of TPM3-TRKA protein at 0.01 µM,[2]; [6],> 80%
"Cn1c(=O)n(C2CCC(=O)NC2=O)c2ccc(OCCCN3CCN(c4cccc(-c5cnc6ccc(N7CCC[C@@H]7c7cccc(F)c7)nn56)n4)CC3)cc21 (stereo partly drawn) [TR-257, 3-(5-(3-(4-(6-(6-((R)-2-(3-Fluorophenyl)pyrrolidin-1-yl)imidazo[1,2-b]pyridazin-3-yl)pyridin-2-yl)piperazin-1-yl)propoxy)-3-methyl-2-oxo-2,3-dihydro-1H-benzo[d]imidazol-1-yl)piperidine-2,6-dione]",IC50,[1]; three days treatment,> 500 nM
"O=C1CCC(N2C(=O)c3ccc(CN4CCN(c5ccc(C(=O)Nc6n[nH]c7ccc(Cc8cc(F)cc(F)c8)cc67)c(NC6CCOCC6)c5)CC4)cc3C2=O)C(=O)N1 (stereo not drawn) [TR-274, N-(5-(3,5-Difluorobenzyl)-1H-indazol-3-yl)-4-(4-((2-(2,6-dioxopiperidin-3-yl)-1,3-dioxoisoindolin-5-yl)methyl)piperazin-1-yl)-2-((tetrahydro-2/-pyran-4-yl)amino)benzamide]",IC50,[1]; three days treatment,440 nM
"O=C1CCC(N2C(=O)c3ccc(CCN4CCN(c5ccc(C(=O)Nc6n[nH]c7ccc(Cc8cc(F)cc(F)c8)cc67)c(NC6CCOCC6)c5)CC4)cc3C2=O)C(=O)N1 (stereo not drawn) [TR-277, N-(5-(3,5-Difluorobenzyl)-1H-indazol-3-yl)-4-(4-(2-(2-(2,6-dioxopiperidin-3-yl)-1,3-dioxoisoindolin-S-yl)ethyl)piperazin-1-yl)-2-((tetrahydro-2H-pyran-4-yl)amino)benzamide]",IC50,[1]; three days treatment,> 500 nM
"O=C1CCC(N2C(=O)c3ccc(N4CC5(CCC(N6CCN(c7ccc(C(=O)Nc8n[nH]c9ccc(Cc%10cc(F)cc(F)c%10)cc89)c(NC8CCOCC8)c7)CC6)C5)C4)cc3C2=O)C(=O)N1 (stereo not drawn) [TR-291, N-(5-(3,5˜Difluorobenzyl)-1H-indazol-3-yl)-4-(4-(2-(2-(2,6-dioxopiperidin-3-yl)-1,3-dioxoisoindolin-5-yl)-2-azaspiro[3.4]octan-6-yl)piperazin-1-yl)-2-((tetrahydro-2H-pyran˜4-yl)amino)benzamide]",IC50,[1]; three days treatment,446 nM
"Cc1nc2cccc(N3CC(CCN4CCN(c5cccc(-c6cnc7ccc(N8CCC[C@@H]8c8cccc(F)c8)nn67)n5)CC4)C3)c2c(=O)n1C1CCC(=O)NC1=O (stereo partly drawn) [TR-307, 3-(5˜ (3-(2-(4-(6-(6-((R)-2-(3-Fluorophenyl)pyrrolidin-1-yl)imidazo[1,2-b]pyridazin-3-yl)pyridin-2-yl)piperazin-1-yl)ethyl)azetidin-1-yl)-2-methyl-4-oxoquinazolin-3 (4H)-yl)piperidine-2,6-dione]",IC50,[1]; three days treatment,12.7 nM
"O=C1CCC(n2c(=O)n(CCN3CCN(c4ccc(C(=O)Nc5n[nH]c6ccc(Cc7cc(F)cc(F)c7)cc56)c(NC5CCOCC5)c4)CC3)c3ccccc32)C(=O)N1 (stereo not drawn) [TR-310, N—(S-(3,5-Difluorobenzyl)-1H-indazol-3-yl)-4-(4-(2-(3-(2,6-dioxopiperidin-3-yl)-2-oxo-2,3-dihydro-1H-benzo[d]imidazol-1-yl)ethyl)piperazin-1-yl)-2-((tetrahydro-2H-pyran-4-yl)amino)benzamide]",IC50,[1]; three days treatment,12.5 nM
"O=C1CCC(n2c(=O)n(CCCN3CCN(c4ccc(C(=O)Nc5n[nH]c6ccc(Cc7cc(F)cc(F)c7)cc56)c(NC5CCOCC5)c4)CC3)c3ccccc32)C(=O)N1 (stereo not drawn) [TR-311, N—(S-(3,5-Difluorobenzyl)-1H-indazol-3-yl)-4-(4-(3-(3-(2,6-dioxopiperidin-3-yl)-2-oxo-2,3-dihydro-1H-benzo[d]imidazol-1-yl)propyl)piperazin-1-yl)-2˜ ((tetrahydro-2H-pyran-4-yl)amino)benzamide]",IC50,[1]; three days treatment,14.8 nM
"Cn1c(=O)n(C2CCC(=O)NC2=O)c2cccc(OCCCN3CCN(c4ccc(C(=O)Nc5n[nH]c6ccc(Cc7cc(F)cc(F)c7)cc56)c(NC5CCOCC5)c4)CC3)c21 (stereo not drawn) [TR-312, N-(5-(3,5-Difluorobenzyl)-1H-indazol-3-yl)-4-(4-(3-((1-(2,6-dioxopiperidin-3-yl)-3-methyl-2-oxo-2,3-dihydro-1H-benzo[d]imidazol-4-yl)oxy)propyl)piperazin-1-yl)-2-((tetrahydro-2/˜pyran-4-yl)amino)benzamide]",IC50,[1]; three days treatment,107 nM
"Cn1c(=O)n(C2CCC(=O)NC2=O)c2ccc(OCCCN3CCN(c4ccc(C(=O)Nc5n[nH]c6ccc(Cc7cc(F)cc(F)c7)cc56)c(NC5CCOCC5)c4)CC3)cc21 (stereo not drawn) [TR-313, N-(5-(3,5-Difluorobenzyl)-1H-indazol-3-yl)-4-(4-(3-((1-(2,6-dioxopiperidin-3-yl)-3-methyl-2-oxo-2,3-dihydro-1H-benzo[d]imidazol-5-yl)oxy)propyl)piperazin-1-yl)-2-((tetrahydro-2/1-pyran-4-yl)amino)benzamide]",IC50,[1]; three days treatment,13.8 nM
O=C1CCC(N2C(=O)c3ccc(N4CC5(CN(CC6CCN(c7ccc(C(=O)Nc8n[nH]c9ccc(Cc%10cc(F)cc(F)c%10)cc89)c(NC8CCOCC8)c7)CC6)C5)C4)cc3C2=O)C(=O)N1 (stereo not drawn) [TR-329],IC50,[1]; three days treatment,> 500 nM
